Measured values from US20100196275A1, “Methods and products for neutralizing the harmful effects of combustion products” (priority 2006, published 2010).
“Also recorded” adds a separate entry of the source.

Columns and labels:
[1] = test system: nucleotide excision repair (NER); settings: previously found, earlier publications; cited from earlier work
[2] = rats; cited from earlier work
[3] = test system: nucleotide excision repair (NER); test: In vitro DNA damage-specific repair synthesis assay; format: biochemical, human
Procedure: (§1) Determination of the Effect of Acr Treatment on DNA Repair. Host cell reactivation (HCR) and in vitro DNA repair synthesis assays were performed as previously described to determine the effects of Acr treatment on DNA repair in human cells (Feng, Z., Hu, W., & Tang, M.-s. (2004) Proc. Nat. Acad. Sci. 101, 8598-8602; Feng, Z., Hu, W., Marnett, L., & Tang, M.-s. Mutat. Res. in press).

[4] = test system: supF gene; test: supF shuttle vector pSP189 mutation assay in NHLF; format: cell-based, human; design: dose or concentration left out as unconfirmed; settings: pSP189 modified with Acr, replicated in NHLF
Procedure: Determination of Mutations Induced by Acr-DNA Adducts. The methods used for mutation detection and for mutational spectrum determination were the same as previously described (Feng, Z., Hu, W., Amin, S., & Tang, M.-s. (2003) Biochemistry 42, 7848-7854). Briefly, shuttle vector pSP189 plasmid DNA was modified with different concentrations of Acr, and transfected into NHLF for replication. Plasmids were recovered 72 h after transfection, and replicated plasmids were then transformed into MB7070 E. coli indicator cells. The supF gene in plasmids isolated from mutant white colonies were then sequenced.

[5] = test system: nucleotide excision repair (NER); test: Host cell reactivation (HCR) assay; format: cell-based, human; settings: NHLF treated with Acr for 1 h, BPDE-modified luciferase plasmid
Procedure: as §1

Row | Compound | effect on cellular NER capacity [1] | bladder tumour occurrence [2] | inhibitory effect, cell lysates directly treated versus whole cells treated ([3]; NHLF) | effect on repair of BPDE-DNA adducts (NER capacity) ([3]; NHLF cell extracts, BPDE-modified pUC18) | G to T transversions among base substitution mutants sequenced [4] | mutation frequency [4] | share of G to T transversions among base substitutions [4] | effect on repair of BPDE-DNA adducts (NER capacity) [5]
1 | CCCCCC(O)/C=C/C=O (stereo not drawn) [4-HNE] | greatly reduce cellular nucleotide excision repair (NER) capacity | – | – | – | – | – | – | –
2 | C=CC=O [Acr, Acrolein] | – | greatly enhances urinary bladder papilloma occurrence in rats; also recorded: cause bladder cancer in rats | much more pronounced in cell lysates directly treated with Acr than whole cells treated with Acr | greatly inhibit NER for BPDE-induced DNA damage | 28 out of 55 | 120×10^−4 | more than 50% | greatly inhibit NER for BPDE-induced DNA damage
3 | O=CCC=O [MDA] | greatly reduce cellular nucleotide excision repair (NER) capacity | – | – | – | – | – | – | –
